Measurements taken from ChEMBL document CHEMBL1201862, “PubChem BioAssay data set” (2004).
Calls of active or inactive are those of the source.

Legend:
Melanocortin receptor 4 = Melanocortin receptor 4 (Homo sapiens, UniProt P32245); assay: MC4R antagonist potency on cAMP, dose response, cell-based, TR-FRET, biased antagonists (AID 602298); format: functional;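 note: antagonist potency against agonist-stimulated cAMP production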
[1] = nonselective inhibitors of cellular cAMP signaling, dose response, counter-screen for MC4R biased antagonist project, cell-based, TR-FRET cAMP detection (AID 602305); format: functional;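 note: U2OS cells stimulated with forskolin near its EC80 as the cAMP inducer; potency is for inhibition of forskolin-stimulated cAMP signaling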
HEK293 = assay: inhibitors of LMP1-driven NF-kB reporter, dose response, cell-based, HEK293, luciferase, cherry-pick (AID 588343); format: functional; details: Homo sapiens
[2] = biological target: T1, Latent membrane protein 1 (Human herpesvirus 4 (strain B95-8), UniProt P03230); assay: TES1-eGFP NF-kB reporter inhibition versus Tet-On dsRED, dose response, selectivity assay for LMP1 NF-kB inhibitor project, imaging, HEK293T, dual-color eGFP/dsRED, cherry-picks (AID 588398); format: functional, cell-based
T1 sequence (P03230 whole entry): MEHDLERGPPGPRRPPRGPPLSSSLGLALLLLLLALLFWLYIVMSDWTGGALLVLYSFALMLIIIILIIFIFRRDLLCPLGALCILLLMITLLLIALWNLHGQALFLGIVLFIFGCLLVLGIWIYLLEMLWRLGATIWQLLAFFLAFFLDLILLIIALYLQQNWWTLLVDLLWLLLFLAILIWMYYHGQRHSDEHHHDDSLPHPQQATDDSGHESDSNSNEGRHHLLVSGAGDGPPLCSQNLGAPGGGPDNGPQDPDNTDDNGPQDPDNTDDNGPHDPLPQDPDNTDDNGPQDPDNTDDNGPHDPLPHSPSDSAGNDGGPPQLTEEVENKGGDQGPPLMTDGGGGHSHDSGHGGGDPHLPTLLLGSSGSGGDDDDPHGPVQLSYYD

[3] = biological target: Adenosylmethionine-8-amino-7-oxononanoate aminotransferase (Mycobacterium tuberculosis, UniProt P9WQ81); assay: Mycobacterium tuberculosis BioA enzyme inhibitor Measured in Biochemical System Using Plate Reader - 2163-02_Inhibitor_Dose_CherryPick_Activity.; format: functional, Mycobacterium tuberculosis UT205
BJ [4] = assay: cytotoxicity toward BJ-TERT fibroblasts, dose response, cell-based, RAS-independent, luminescence (AID 1933); format: functional; details: Homo sapiens
BJ [5] = assay: cells; format: functional, cell-based; details: Homo sapiens
BJ [6] = assay: cytotoxicity toward BJ-TERT-LT-ST fibroblasts, dose response, cell-based, RAS-independent, luminescence (AID 1935); format: functional; details: Homo sapiens;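 note: BJ fibroblasts immortalized with TERT plus LT and ST oncogenes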
[7] = cytotoxicity toward DRD oncogenic fibroblasts, dose response, cell-based, non-viral oncogenic, luminescence (AID 1934); format: functional; details: Homo sapiens
[8] = biological target: T2, Replicative DNA helicase DnaB (Mycobacterium tuberculosis, UniProt P9WMR3); assay: DnaB intein splicing inhibitors, dose response, biochemical, cell-free fluorescence (AID 449749); format: functional
T2 sequence (P9WMR3 whole entry): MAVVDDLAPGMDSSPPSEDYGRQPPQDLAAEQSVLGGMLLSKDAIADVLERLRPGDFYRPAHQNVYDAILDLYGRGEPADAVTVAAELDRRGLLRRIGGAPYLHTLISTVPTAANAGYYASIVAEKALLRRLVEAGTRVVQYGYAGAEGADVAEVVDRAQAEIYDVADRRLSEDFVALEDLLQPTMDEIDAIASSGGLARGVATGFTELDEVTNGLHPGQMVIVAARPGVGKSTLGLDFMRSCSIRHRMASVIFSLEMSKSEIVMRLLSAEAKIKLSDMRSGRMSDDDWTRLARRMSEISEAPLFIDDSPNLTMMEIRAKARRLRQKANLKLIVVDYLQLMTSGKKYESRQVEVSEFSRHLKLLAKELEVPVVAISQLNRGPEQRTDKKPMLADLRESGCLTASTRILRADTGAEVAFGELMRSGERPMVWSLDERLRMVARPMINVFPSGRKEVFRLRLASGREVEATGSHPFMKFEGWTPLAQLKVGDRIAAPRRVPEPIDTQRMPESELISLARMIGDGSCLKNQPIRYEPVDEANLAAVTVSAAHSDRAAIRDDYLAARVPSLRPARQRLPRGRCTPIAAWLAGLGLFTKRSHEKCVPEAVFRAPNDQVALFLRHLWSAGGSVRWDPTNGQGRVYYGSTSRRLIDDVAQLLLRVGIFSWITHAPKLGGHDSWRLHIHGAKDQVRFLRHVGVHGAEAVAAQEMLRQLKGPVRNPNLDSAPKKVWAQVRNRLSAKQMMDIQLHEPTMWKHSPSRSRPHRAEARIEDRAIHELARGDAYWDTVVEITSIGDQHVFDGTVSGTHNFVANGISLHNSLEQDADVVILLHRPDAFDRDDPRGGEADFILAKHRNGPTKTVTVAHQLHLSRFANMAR

[9] = biological target: Heat shock protein HSP 90-alpha (Homo sapiens, UniProt P07900); format: functional, organism-based
BJ [10] = assay: cytotoxicity toward Ras-transformed BJeLR fibroblasts, dose response, cell-based, alamar blue fluorescence, cherrypicked samples (AID 2631); format: functional; details: Homo sapiens;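 note: confirmatory dose-response assay in RAS-dependent BJ fibroblasts engineered with TERT, LT and ST, with cytotoxicity read by fluorescence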
Protein RecA = biological target: T3, Protein RecA (Mycobacterium tuberculosis, UniProt P9WHJ3); assay: Fluorescence Cell-Free Homogeneous Dose Retest to Identify Inhibitors of RecA-Intein Splicing Activity. [Related pubchem assays (depositor defined):AID2097, AID2223, AID489010, AID492950]; format: functional
T3 sequence (P9WHJ3 whole entry): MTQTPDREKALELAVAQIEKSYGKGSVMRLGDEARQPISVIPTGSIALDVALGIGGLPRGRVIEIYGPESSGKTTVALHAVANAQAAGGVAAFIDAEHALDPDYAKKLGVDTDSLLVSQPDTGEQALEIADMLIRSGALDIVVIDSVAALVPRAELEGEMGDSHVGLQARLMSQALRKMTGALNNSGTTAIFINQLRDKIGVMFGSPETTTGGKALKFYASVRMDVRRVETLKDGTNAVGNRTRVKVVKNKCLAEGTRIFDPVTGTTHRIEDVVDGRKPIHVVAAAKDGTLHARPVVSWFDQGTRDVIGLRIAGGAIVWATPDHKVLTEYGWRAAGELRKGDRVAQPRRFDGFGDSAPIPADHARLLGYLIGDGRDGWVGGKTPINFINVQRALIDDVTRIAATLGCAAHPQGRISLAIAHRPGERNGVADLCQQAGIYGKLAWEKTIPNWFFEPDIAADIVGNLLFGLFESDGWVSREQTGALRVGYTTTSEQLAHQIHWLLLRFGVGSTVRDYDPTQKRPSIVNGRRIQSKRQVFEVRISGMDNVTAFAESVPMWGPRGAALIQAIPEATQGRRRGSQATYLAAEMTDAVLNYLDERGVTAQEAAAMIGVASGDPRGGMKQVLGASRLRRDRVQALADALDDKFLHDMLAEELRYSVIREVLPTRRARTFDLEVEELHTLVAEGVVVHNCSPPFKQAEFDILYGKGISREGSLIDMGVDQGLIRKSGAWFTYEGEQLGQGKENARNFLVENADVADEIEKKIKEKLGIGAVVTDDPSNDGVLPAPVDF

[11] = Fluorescence-based cell-based high throughput dose response assay for inhibitors of the interaction of nucleotide-binding oligomerization domain containing 2 (NOD2) and the receptor-interacting serine-threonine kinase 2 (RIPK2).; format: functional; details: Homo sapiens
[12] = inhibitors of intracellular T. cruzi replication, confirmation, NIH3T3 host cells, beta-gal luminescence (AID 2044); format: functional, cell-based;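 note: intracellular parasites grown in NIH/3T3 mouse fibroblasts as host cells; luminescent beta-galactosidase reporter signal from transgenic T. cruzi replicating inside host cells; inhibitors lower the luminescence signal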
[13] = cytotoxicity toward NIH3T3 fibroblasts, dose response, counter-screen, cell-based, ATP luminescence, mouse fibroblasts (AID 2010); format: functional;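 note: cells exposed to compound for about 90 hours before reading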
cells [14] = format: functional, cell-based
cells [15] = format: functional, cell-based; remark: listed apart in the source
INS1 = assay: beta cell apoptosis inhibitors, cytokine rescue, dose response, luminescence, retest (AID 449756); format: functional, cell-based; details: Rattus norvegicus;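 note: cell death triggered by IL-1 beta plus TNF-alpha plus IFN-gamma mixture; protective hits raise ATP signal compared with cytokine alone wells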

Sequence of Melanocortin receptor 4 (P32245 whole entry): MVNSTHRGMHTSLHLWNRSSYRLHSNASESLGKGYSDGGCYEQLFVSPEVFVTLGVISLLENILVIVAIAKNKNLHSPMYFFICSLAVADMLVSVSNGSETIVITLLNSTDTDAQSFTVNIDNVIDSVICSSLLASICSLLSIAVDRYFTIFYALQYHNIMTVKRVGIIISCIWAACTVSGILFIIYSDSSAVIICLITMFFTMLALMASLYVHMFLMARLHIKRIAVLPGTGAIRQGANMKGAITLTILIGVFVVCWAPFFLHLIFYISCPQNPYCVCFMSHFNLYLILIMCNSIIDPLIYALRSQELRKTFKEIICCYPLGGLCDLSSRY
Sequence of Adenosylmethionine-8-amino-7-oxononanoate aminotransferase (P9WQ81 whole entry): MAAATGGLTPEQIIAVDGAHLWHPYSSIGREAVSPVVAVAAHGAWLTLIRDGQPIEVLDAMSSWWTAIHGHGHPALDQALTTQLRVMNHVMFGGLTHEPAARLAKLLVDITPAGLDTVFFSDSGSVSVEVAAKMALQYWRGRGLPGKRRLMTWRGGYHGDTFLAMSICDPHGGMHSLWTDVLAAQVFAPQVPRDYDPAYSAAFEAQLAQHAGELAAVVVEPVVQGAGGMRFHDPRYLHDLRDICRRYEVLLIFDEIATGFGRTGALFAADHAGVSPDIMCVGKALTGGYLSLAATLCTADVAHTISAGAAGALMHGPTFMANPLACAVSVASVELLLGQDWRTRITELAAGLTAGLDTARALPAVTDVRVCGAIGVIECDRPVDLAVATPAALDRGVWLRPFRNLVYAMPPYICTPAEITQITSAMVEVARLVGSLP

O=C1c2cccc([N+](=O)[O-])c2C(=O)N1c1ccccc1
IC50 (Melanocortin receptor 4): > 64.6 µM (inactive)
IC50 [1]: > 64.6 µM (inactive)

CCOC(=O)CC(NC(=O)C(Cc1ccc(N(CCCl)CCCl)cc1)NC(C)=O)C(=O)OCC (stereo not drawn)
AC50 (HEK293): 1.65 µM (active)
AC50 [2]: 16.2 µM (active)

COCCNC(=O)C[C@H]1CC[C@@H]2[C@@H](COc3ccc(NC(=O)Nc4cccc(F)c4)cc3C(=O)N2C)O1
AC50 [3]: 5.19 µM (active)

O=[N+]([O-])c1cc(Br)c(Nc2ccccc2)c([N+](=O)[O-])c1
EC50 (BJ [4]): 5.53 µM (inconclusive)
EC50 (BJ [5]): 2.57 µM (inconclusive)
EC50 (BJ [6]): 28.3 µM (inconclusive)
EC50 [7]: 4.5 µM (active)
AC50 [8]: 5.68 µM (active)
AC50 [9]: 7.5 µM (active)
EC50 (BJ [10]): 1.37 µM (active)
EC50 (Protein RecA): 5.15 µM (active)
IC50 [11]: 2.12 µM (active)

CCOc1ccc2nc(NC(=O)C3CCCN(S(=O)(=O)c4cccc5nonc45)C3)sc2c1 (stereo not drawn)
EC50 [12]: 2.11 µM (active)
EC50 [13]: > 60 µM (not active)
IC50 (Melanocortin receptor 4): > 64.6 µM (inactive)
IC50 [1]: > 64.6 µM (inactive)

CCN(CC)c1ccc(/C=N/NC(=O)c2cnccn2)c(O)c1
EC50 (BJ [4]): 5.61 µM (active)
EC50 (cells [14]): 8.38 µM (active)
EC50 (BJ [5]): 5.54 µM (active)
EC50 (cells [15]): 40 µM (active)
EC50 [7]: 2.17 µM (active)
AC50 (HEK293): 5.61 µM (active)
AC50 [2]: 13.2 µM (active)
AC50 (INS1): 0.55 µM (active)

O=C1CSC(=S)N1Cc1ccccc1
AC50 (HEK293): 2.11 µM (active)
AC50 [2]: 119 µM (active)
